Tested on: CCF-STTG1
Experiment: Induction of apolipoprotein E secretion in human CCF-STTG1 cells at 40 uM after 96 hrs by ELSA relative to control
Type: functional

SMILES: COc1c(Br)cc(CC(=O)C(=O)O)cc1Br
- fold change (FC): 1
